Measurements published in PMC7794376 (Nature Communications, 2021).
Where “and” joins values, the source holds several entries; their conditions need not be identical. Equal values may be shown once. Read-outs that look alike come from different tables or passages of the source.

Columns and labels:
[1] = target: MtbCoaBC (Mycobacterium tuberculosis, UniProt P9WNZ1); assay: biochemical; assay type: biochemical; conditions: for activity at 0.03125 µM / activity at 0.0625 µM / activity at 0.25 µM / activity at 0.5 µM / activity at 1 µM / activity at 2 µM: relative to average DMSO CT; for Activity R1 / Activity R3: slope of absorbance at 360nm vs time (s)
Sequence of MtbCoaBC (P9WNZ1 whole entry): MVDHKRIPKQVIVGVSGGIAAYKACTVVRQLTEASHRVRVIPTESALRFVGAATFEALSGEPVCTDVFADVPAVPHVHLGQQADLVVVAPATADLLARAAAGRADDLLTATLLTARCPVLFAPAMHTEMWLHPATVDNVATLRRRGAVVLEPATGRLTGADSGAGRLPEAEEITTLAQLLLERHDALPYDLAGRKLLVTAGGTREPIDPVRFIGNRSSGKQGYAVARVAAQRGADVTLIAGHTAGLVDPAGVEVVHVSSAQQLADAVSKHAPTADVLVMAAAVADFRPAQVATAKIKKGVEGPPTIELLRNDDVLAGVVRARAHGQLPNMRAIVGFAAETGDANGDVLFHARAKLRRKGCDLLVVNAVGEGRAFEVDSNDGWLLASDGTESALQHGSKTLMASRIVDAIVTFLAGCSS

[2] = tested on: M. tuberculosis H37Rv; assay: MIC determination in different media; assay type: cell-based; conditions: Mycobacterium tuberculosis, read-out: Minimum inhibitory concentration (MIC)

`Cc1ccc(-c2oc3cc(O)cc(O)c3c(=O)c2O)cc1C` [compound 2d] was tested, and the inhibition at 0.03125 µM ([1]; 2d at 0.03125 uM, replicate R1, read-out: Inhibition % R1) was 0.7%, the activity at 0.03125 µM ([1]; 2d at 0.03125 uM, replicate R1, read-out: Activity % R1) was 99.3% and the “Activity R1” value ([1]; 2d at 0.03125 uM, replicate R1) was 0.0001845. It also gave an inhibition at 0.03125 µM ([1]; 2d at 0.03125 uM, replicate R2, read-out: Inhibition % R2) of 0.97%, an activity at 0.03125 µM ([1]; 2d at 0.03125 uM, replicate R2, read-out: Activity % R2) of 99% and an inhibition at 0.03125 µM ([1]; 2d at 0.03125 uM, replicate R3, read-out: Inhibition % R3) of 0.58%. The activity at 0.03125 µM ([1]; 2d at 0.03125 uM, replicate R3, read-out: Activity % R3) was 99.4%, the “Activity R3” value ([1]; 2d at 0.03125 uM, replicate R3) was 0.0001847 and the inhibition at 0.0625 µM ([1]; 2d at 0.0625 uM, replicate R1, read-out: Inhibition % R1) was 8.46%. The activity at 0.0625 µM ([1]; 2d at 0.0625 uM, replicate R1, read-out: Activity % R1) was 91.5%, the “Activity R1” value ([1]; 2d at 0.0625 uM, replicate R1) was 0.0001701 and the inhibition at 0.0625 µM ([1]; 2d at 0.0625 uM, replicate R2, read-out: Inhibition % R2) was 5.42%. For the same compound, the activity at 0.0625 µM ([1]; 2d at 0.0625 uM, replicate R2, read-out: Activity % R2) was 94.6%, the inhibition at 0.0625 µM ([1]; 2d at 0.0625 uM, replicate R3, read-out: Inhibition % R3) was 3.86% and the activity at 0.0625 µM ([1]; 2d at 0.0625 uM, replicate R3, read-out: Activity % R3) was 96.1%. The “Activity R3” value ([1]; 2d at 0.0625 uM, replicate R3) was 0.0001786, the inhibition at 0.25 µM ([1]; 2d at 0.25 uM, replicate R1, read-out: Inhibition % R1) was 14.5% and the activity at 0.25 µM ([1]; 2d at 0.25 uM, replicate R1, read-out: Activity % R1) was 85.5%. For the same compound, the “Activity R1” value ([1]; 2d at 0.25 uM, replicate R1) was 0.0001588, the inhibition at 0.25 µM ([1]; 2d at 0.25 uM, replicate R2, read-out: Inhibition % R2) was 31.1% and the activity at 0.25 µM ([1]; 2d at 0.25 uM, replicate R2, read-out: Activity % R2) was 68.9%. For the same compound, the inhibition at 0.25 µM ([1]; 2d at 0.25 uM, replicate R3, read-out: Inhibition % R3) was 29.5%, the activity at 0.25 µM ([1]; 2d at 0.25 uM, replicate R3, read-out: Activity % R3) was 70.5% and the “Activity R3” value ([1]; 2d at 0.25 uM, replicate R3) was 0.000131. For the same compound, the inhibition at 0.5 µM ([1]; 2d at 0.5 uM, replicate R1, read-out: Inhibition % R1) was 41%, the activity at 0.5 µM ([1]; 2d at 0.5 uM, replicate R1, read-out: Activity % R1) was 59% and the “Activity R1” value ([1]; 2d at 0.5 uM, replicate R1) was 0.0001096. It also gave an inhibition at 0.5 µM ([1]; 2d at 0.5 uM, replicate R2, read-out: Inhibition % R2) of 49.6%, an activity at 0.5 µM ([1]; 2d at 0.5 uM, replicate R2, read-out: Activity % R2) of 50.4% and an inhibition at 0.5 µM ([1]; 2d at 0.5 uM, replicate R3, read-out: Inhibition % R3) of 54%. For the same compound, the activity at 0.5 µM ([1]; 2d at 0.5 uM, replicate R3, read-out: Activity % R3) was 46%, the “Activity R3” value ([1]; 2d at 0.5 uM, replicate R3) was 8.549e-5 and 0.000085493 and the inhibition at 1 µM ([1]; 2d at 1 uM, replicate R1, read-out: Inhibition % R1) was 63%. For the same compound, the activity at 1 µM ([1]; 2d at 1 uM, replicate R1, read-out: Activity % R1) was 37%, the “Activity R1” value ([1]; 2d at 1 uM, replicate R1) was 6.875e-5 and 0.000068751 and the inhibition at 1 µM ([1]; 2d at 1 uM, replicate R2, read-out: Inhibition % R2) was 75%. It also gave an activity at 1 µM ([1]; 2d at 1 uM, replicate R2, read-out: Activity % R2) of 25%, an inhibition at 1 µM ([1]; 2d at 1 uM, replicate R3, read-out: Inhibition % R3) of 72.4% and an activity at 1 µM ([1]; 2d at 1 uM, replicate R3, read-out: Activity % R3) of 27.6%. The “Activity R3” value ([1]; 2d at 1 uM, replicate R3) was 5.136e-5 and 0.000051357, the inhibition at 2 µM ([1]; 2d at 2 uM, replicate R1, read-out: Inhibition % R1) was 79% and the activity at 2 µM ([1]; 2d at 2 uM, replicate R1, read-out: Activity % R1) was 21%. The “Activity R1” value ([1]; 2d at 2 uM, replicate R1) was 3.9e-5 and 0.000039000, the inhibition at 2 µM ([1]; 2d at 2 uM, replicate R2, read-out: Inhibition % R2) was 91% and the activity at 2 µM ([1]; 2d at 2 uM, replicate R2, read-out: Activity % R2) was 8.99%. The inhibition at 2 µM ([1]; 2d at 2 uM, replicate R3, read-out: Inhibition % R3) was 85%, the activity at 2 µM ([1]; 2d at 2 uM, replicate R3, read-out: Activity % R3) was 15% and the “Activity R3” value ([1]; 2d at 2 uM, replicate R3) was 2.786e-5 and 0.000027864. The “Activity R1” value ([1]; 2d at […], replicate R1) was 0.0001624, the “Activity R3” value ([1]; 2d at […], replicate R3) was 0.0001724 and the IC50 ([1]; CoaB activity, […] CTP, […] PPA, 500 µM L-cysteine, average of three independent experiments ± SD, read-out: IC50 EnzChek MtbCoaBC) was 540 ± 60 nM. The MIC ([2]; 7H9/ADC/Glycerol) was greater than 250 µM, the MIC ([2]; 7H9/Cholesterol/Tyloxapol) was greater than 250 µM and the MIC ([2]; GAST/Fe) was greater than 250 µM.
